Data set [1] is described as follows: physchem. From the text:
Table 4. Solubility of cryptophycin glycinate 12 in various parenteral vehicles.

Data set [2] is described as follows: physchem. In kind it is physicochemical. The note with it: for solubility: water.
Data set [3] has as its system GC3 human colon carcinoma cells. Description: cells. The data set is classed as cell-based. The note with it: 72 hours incubation, MTT. As for the experimental part: Selected wells of a 96 well plate were seeded with GC3 human colon carcinoma cells ([…] cells in 100µl assay medium/well) twenty four hours prior to test compound addition. Cell free assay medium was added to other select wells of the 96 well plate. The assay medium (RPMI-1640 was the medium used; however, any medium that will allow the cells to survive would be acceptable) was supplemented with 10% dialyzed fetal bovine serum and 25 mM HEPES buffer.
The test compound was stored in an amber bottle prior to testing. Fresh dimethylsulfoxide stock solution (200µg/ml) was prepared immediately prior to preparation of test sample dilutions in phosphate-buffered saline (PBS). A dilution of 1:20 dimethylsulfoxide solution in PBS was prepared such that the final concentration was 10 µg/ml. Serial 1:3 dilutions using PBS (.5ml previous sample of 1ml PBS) were prepared. Falcon 2054 tubes were used for the assay.
A 10ul sample of each dilution of test compound was added in triplicate to wells of GC3 plates. The plates were incubated for 72 hours at about 37°C. A 10µl sample of stock […] salt ("MTT" 5 mg/ml in PBS) was added to each well. The plates were incubated for about an hour at 37°. The plates were centrifuged, media was decanted from the wells and 100µl acid-isopropanol (0.04 N HCl in isopropanol) was added to each well. The plate was read within one hour using a test wavelength of 570nm (SpectraMax reader).

Data set [4] has as its system A-10 rat aortic smooth muscle cells. Description: Immunofluorescence: effects on the cytoskeleton. As to conditions: A-10 cells, 2µM cytochalasin B, 24 hours. The data set is classed as cell-based. As for the experimental part: (§1) A-10 cells are grown to near-confluency on glass coverslips in BME/10% FBS. Compounds in PBS are added to the indicated final concentrations and cells are incubated for an additional 24 hours. For the staining of microtubules and intermediate filaments, the cells are fixed with cold methanol and incubated with PBS containing 10% calf serum to block nonspecific binding sites. Cells are then incubated at 37°C for 60 min. With either monoclonal anti-β-tubulin or with monoclonal anti-vimentin at dilutions recommended by the manufacturer. Bound primary antibodies are subsequently visualized by a 45 minute incubation with fluorescein-conjugated rabbit antimouse IgG. The coverslips are mounted on microscope slides and the fluorescence patterns are examined and photographed using a Zeiss Photomicroscope I11 equipped with epifluorescence optics for fluorescein. […] PBS containing 100nM TRITC-phalloidin is then added and the mixture is allowed to incubate for 45 min. At 37°C. The cells are washed rapidly with PBS before the coverslips are mounted and immediately photographed as described above.
After 24 hours, microtubules and vimentin intermediate filaments are visualized by indirect immunofluorescence and microfilaments are stained using TRITC-phalloidin. The morphological effects of each drug is examined. […]

The subject of data set [5] is A-10 cells. Description: Effects on taxol-stabilized microtubules. In kind it is cell-based, rat. On the procedure:
as §1
After 24 hours, microtubule organization is examined by immunofluorescence as described above. […] Similarly, microtubules pretreated with taxol are observed with cryptophycin treatment.

Data set [6] deals with A-10 cells. Nature of the data set: Reversibility of microtubule depolymerization. In kind it is cell-based, rat. The note with it: 100nM vinblastine 24 hr. On the procedure: as §1
The cells are then washed and incubated in drug-free medium for periods of 1 hour or 24 hours. […] Cells are visualized for microtubule state after treatment with a cryptophycin compound of this invention at either 1 hour or 24 hours after removal of the cryptophycin compounds.

The mark [7] stands for this setting: pH 8, room temperature, read-out: solubility value.

In brackets after ≈: the same amount, converted by molar mass. Where a name gives a salt, the structure may show the parent alone. Read-outs that look alike come from different tables or passages of the source.

One may read the solubility as the concentration that dissolves in the medium under given conditions. For `COc1ccc(C[C@H]2NC(=O)/C=C/C[C@@H]([C@H](C)[C@@H](O)[C@@H](Cl)c3ccccc3)OC(=O)[C@H](CC(C)C)OC(=O)C(C)(C)CNC2=O)cc1Cl` [Compound 1, cryptophycin 55], the Comparative solubilities entry in “physchem [1]” (excipient 1: Propylene Glycol 15, Ethanol 10 %v/v, volume adjusted 0.05M acetate buffer, BQL = Below quantitation limit, approximately 0.001 mg/ml) is recorded as “BQL”. Besides, in “physchem [2]” (aqueous pH 4-8, room temperature), the “aqueous solubility over the pH range studied” value is “declined as the pH bacame basic”. Moreover, the solubility in the data set “physchem [2]” (pH 4, water, pH of 4, read-out: aqueous solubility value) is about 50 µg/mL (≈ 70.9 µM); in the data set “physchem [2]” (setting [7]), 10 µg/mL (≈ 14.2 µM).

Usually IC50 stands for the point on the concentration scale where inhibition reaches its midpoint. Higher therefore signals lower potency. For the molecule `COc1ccc(C[C@H]2NC(=O)/C=C/C[C@@H]([C@H](C)[C@@H](OC(=O)CN)[C@@H](Cl)c3ccccc3)OC(=O)[C@H](CC(C)C)OC(=O)C(C)(C)CNC2=O)cc1Cl` [Compound 12], the solubility in the data set “physchem [1]” (0.05m acetate buffer, pH 4, aqueous buffer, Comparative solubilities, excipient 5: 0.05M Acetate buffer pH 4.0 100 %v/v) came to 30 µg/mL (≈ 39.3 µM); in the data set “physchem [1]” (emulphor el719 in acetate buffer, aqueous buffer, Comparative solubilities, excipient 4: Emulphor EL719 1 (w/v), volume adjusted 0.05M acetate buffer), 1500 µg/mL (≈ 1970 µM); in “physchem [1]” (ethanol/acetate buffer, pH 4, organic solvent or mixture, Solubility in parenteral vehicle, vehicle 3: Ethanol 10 %v/v, 0.05M Acetate buffer pH 4.0 qs), 1290 µg/mL (≈ 1690 µM); in the data set “physchem [1]” (ethanol/propylene glycol/acetate buffer, pH 4, organic solvent or mixture, Solubility in parenteral vehicle, vehicle 2: Ethanol 10, Propylene Glycol 10 %v/v, 0.05 M Acetate buffer pH 4.0 qs), 1990 µg/mL (≈ 2610 µM); in the data set “physchem [1]” (ethanol/propylene glycol/acetate buffer, pH 4, organic solvent or mixture, Solubility in parenteral vehicle, vehicle 6: Ethanol 10, Propylene Glycol 25 %v/v, 0.05 M Acetate buffer pH 4.0 qs), 10300 µg/mL (≈ 13500 µM); in the data set “physchem [1]” (ethanol/propylene glycol/acetate buffer, pH 4, organic solvent or mixture, Solubility in parenteral vehicle, vehicle 7: Ethanol 10, Propylene Glycol 15 %v/v, 0.05 M Acetate buffer pH 4.0 qs) it was 4320 µg/mL (≈ 5660 µM). Moreover, the solubility in “physchem [1]” (ethanol/propylene glycol/citrate buffer, pH 4, organic solvent or mixture, Solubility in parenteral vehicle, vehicle 1: Ethanol 10, Propylene Glycol 10 %v/v, 0.05 M Citrate buffer pH 4.0 qs) was 110 µg/mL (≈ 144 µM); in the data set “physchem [1]” (polysorbate 80/acetate buffer, pH 4, Solubility in parenteral vehicle, vehicle 5: Polysorbate 80 0.5 (w/v), 0.05 M Acetate buffer pH 4.0 qs) it was 2210 µg/mL (≈ 2900 µM); in the data set “physchem [1]” (polysorbate 80 in acetate buffer, aqueous buffer, Comparative solubilities, excipient 3: Polysorbate 80 1(w/v), volume adjusted 0.05M acetate buffer, BQL = Below quantitation limit, approximately 0.001 mg/ml), 1000 to 2000 µg/mL (≈ 1310 to 2620 µM); in the data set “physchem [1]” (propylene glycol/acetate buffer, pH 4, organic solvent or mixture, Solubility in parenteral vehicle, vehicle 4: Propylene Glycol 10 %v/v, 0.05 M Acetate buffer pH 4.0 qs), 1580 µg/mL (≈ 2070 µM); in “physchem [1]” (propylene glycol/ethanol/acetate buffer, organic solvent or mixture), over 2000 µg/mL; in the data set “physchem [1]” (propylene glycol/peg 3000/acetate buffer, organic solvent or mixture) it was over 2000 µg/mL. Further, the solubility in “physchem [2]” (setting [7]) was determined as 30 µg/mL (≈ 39.3 µM). In data set [3] (Homo sapiens, Colon carcinoma cell), inhibition was half-maximal at 0.1 nM (IC50).

`COc1ccc(CC2NC(=O)C=CCC(C(C)C(OC(=O)CCN)C(Cl)c3ccccc3)OC(=O)C(CC(C)C)OC(=O)C(C)(C)CNC2=O)cc1Cl` (stereo not shown) [Compound 14, Cryptophycin 55 b-alaninate hydrochloride salt] returned an IC50 in data set [3] of 21 nM.

`COc1ccc(CC2NC(=O)C=CCC(C(C)C(OC(=O)C(C)N)C(Cl)c3ccccc3)OC(=O)C(CC(C)C)OC(=O)C(C)(C)CNC2=O)cc1Cl` (stereo not shown) [Compound 18, Cryptophycin 55 (L)-alaninate hydrochloride salt] returned an IC50 in data set [3] of 2.6 nM.

Consider `COc1ccc(C[C@H]2NC(=O)/C=C/C[C@@H]([C@H](C)[C@@H](OC(=O)[C@@H](N)CCCCN)[C@@H](Cl)c3ccccc3)OC(=O)[C@H](CC(C)C)OC(=O)C(C)(C)CNC2=O)cc1Cl` [Compound 22, Cryptophycin 55 (L)-lysinate di-hydrochloride salt], for which the IC50 in data set [3] came out at 7.2 nM.

The molecule `COc1ccc(CC2NC(=O)C=CCC(C(C)C(OC(=O)C(N)CCCCN)C(Cl)c3ccccc3)OC(=O)C(CC(C)C)OC(=O)C(C)(C)CNC2=O)cc1Cl` (stereo not shown) [Compound 34, Cryptophycin 55 (D)-lysinate di-hydrochloride salt] came in with an IC50 in data set [3] (Table 2 of Example 94) of 6.5 nM.

`COc1ccc(CC2NC(=O)C=CCC(C(C)C(OC(=O)[C@@H](N)CN)C(Cl)c3ccccc3)OC(=O)C(CC(C)C)OC(=O)C(C)(C)CNC2=O)cc1Cl` (stereo partly drawn) [Compound 44, Cryptophycin 55 (S)-2,3-diaminopropionate dihydrochloride salt] yielded an IC50 in data set [3] (Table 2 of Example 94) of 28 nM.

For the molecule `COc1ccc(CC2NC(=O)C=CCC(C(C)C(OC(=O)C(N)CO)C(Cl)c3ccccc3)OC(=O)C(CC(C)C)OC(=O)C(C)(C)CNC2=O)cc1Cl` (stereo not shown) [Compound 46, Cryptophycin 55 (L)-serinate hydrochloride salt], half-maximal inhibition in data set [3] (Table 2 of Example 94) (IC50) required 50 nM.

As for `C=C1[C@@H](C)[C@H]2[C@H](Cc3ccccc3)NC(=O)[C@]23OC(=O)/C=C/[C@H](O)CCC[C@@H](C)C/C=C/[C@H]3[C@@H]1O` [Cytochalasin B, cytochalasin B], in data set [4] (TRITC-phalloidin), the effect on microfilaments result is “complete depolymerization of microfilaments”. The “effect on distribution of microtubules and intermediate filaments” value in data set [4] (indirect immunofluorescence) was “did not affect the distribution of either microtubules or intermediate filaments”.

For `CC(=O)O[C@H]1C(=O)[C@@]2(C)[C@H]([C@H](OC(=O)c3ccccc3)[C@]3(O)C[C@H](OC(=O)[C@H](O)[C@@H](NC(=O)c4ccccc4)c4ccccc4)C(C)=C1C3(C)C)[C@]1(OC(C)=O)CO[C@@H]1C[C@@H]2O` [Taxol, taxol], in the data set with A-10 cells [5] (10µM taxol, compared with control cells), the microtubule organization result is listed as “extensively bundled”.

Turning to `CC[C@]1(O)C[C@@H]2CN(CCc3c([nH]c4ccccc34)[C@@](C(=O)OC)(c3cc4c(cc3OC)N(C)[C@H]3[C@@](O)(C(=O)OC)[C@H](OC(C)=O)[C@]5(CC)C=CCN6CC[C@]43[C@@H]65)C2)C1` [Vinblastine, vinblastine], the “microtubule repolymerization after removal of drug” value with A-10 cells [6] (then drug-free medium 1 hour) was “significant levels of microtubules”; with A-10 cells [6] (then drug-free medium 24 hours), “complete morphological recovery”. Also, in the data set on A-10 cells [5] (100nM vinblastine, 24 hours), the “microtubule depolymerization, non-pretreated cells” value is “complete depolymerization of microtubules”. Moreover, the “microtubule depolymerization after pretreatment with taxol” value in the data set with A-10 cells [5] (3 hours 10µM taxol, then 100nM vinblastine, 24 hours) is given as “pretreatment with taxol prevented microtubule depolymerization”.

Regarding “Cryptophycin 55 3,6,9-tioxadecanoate [Compound 48]”, the IC50 in data set [3] (Table 2 of Example 94) was found to be 10 nM.

The molecule “Cryptophycin 55 (2'-di-t-butylphosphatyl)phenylacetate [Compound 5]” had an IC50 in data set [3] (Table 2 of Example 94) of 31 nM.

“Cryptophycin 55 (D)-aspartate hydrochloride salt [Compound 40]”: the IC50 in data set [3] (Table 2 of Example 94) came to 2 nM. This IC50 is about 16-fold lower than that of the molecule before.

Molecule “Cryptophycin 55 (L) -γ-glutamate hydrochloride salt [Compound 42]” had an IC50 in data set [3] (Table 2 of Example 94) of 15 nM.

For “Cryptophycin 55 (L)-aspartate hydrochloride salt [Compound 38]”, inhibition in data set [3] (Table 2 of Example 94) was half-maximal at 1.6 nM (IC50).

In turn, “Cryptophycin 55 (L)-α-glutamate hydrochloride salt [Compound 36]” gave an IC50 in data set [3] (Table 2 of Example 94) of 2.8 nM. This IC50 is about 1.7-fold higher than that of the molecule before.

With “Cryptophycin 55 N-methylpyridinium acetate salt [Compound 8]”, the figures for the IC50 in data set [3] and in data set [3] (Table 2 of Example 94) were 2.2 nM and 116 nM, respectively.

“Cryptophycin 55 N-t-Boc-3-(3-chloro-4-methoxyphenyl)-(D)-alaninate [Compound 9]”: in data set [3] (Table 2 of Example 94), it took 2.2 nM to reach half-maximal inhibition (IC50).

On to “Cryptophycin 55 N-t-Boc-(D)-alaninate [Compound 19]”, for which the midpoint of inhibition in data set [3] (Table 2 of Example 94), the IC50, lay at 0.1 nM.

Regarding “Cryptophycin 55 N-t-Boc-glycinate [Compound 11]”, in data set [3] (Table 2 of Example 94), it took 6.8 nM to reach half-maximal inhibition (IC50).

The molecule “Cryptophycin 55 Na-Ne-di-t-Boc-(L)-lysinate [Compound 21]” registered an IC50 in data set [3] (Table 2 of Example 94) of 21 nM.

In data set [3] (Table 2 of Example 94), “Cryptophycin 55 glycidylglycinate hydrochloride salt [Compound 47]” returned an IC50 of 2.5 nM.

Regarding “Cryptophycin 55 nicotinoate hydrochloride salt [Compound 7]”, the IC50 in data set [3] stood at 116 nM; in data set [3] (Table 2 of Example 94), 3.7 nM.

The record behind these values is patent publication EP0934065B1, “NOVEL CRYPTOPHYCIN DERIVATIVES AS ANTI-NEOPLASTIC AGENTS” (priority 1996, dated 1998).
